Patent US20210107993A1, “CARTYRIN COMPOSITIONS AND METHODS FOR USE” (Poseida Therapeutics, Inc., priority 2018, published 2021)

What was measured:
[1] = system: cells; assay: AP1903 amount for effective signaling of cells in vitro; assay type: cell-based; details: 1600 Da MW
Experimental: The fixed dose of AP1903 for injection used, for example, may be 0.4 mg/kg intravenously infused over 2 hours. The amount of AP1903 needed in vitro for effective signaling of cells is 10-100 nM (1600 Da MW). This equates to 16-160 μg/L or 0.016-1.6 μg/kg (1.6-160 μg/kg). Doses up to 1 mg/kg were well-tolerated in the Phase I study of AP1903 described above. Therefore, 0.4 mg/kg may be a safe and effective dose of AP1903 for this Phase I study in combination with the therapeutic cells.

[2] = molecular target: T1, iC9 safety switch (Homo sapiens, UniProt P62942, F37V); assay: iC9 safety switch test: viability by flow cytometry using 7-AAD after AP1903; assay type: cell-based
T1 construct: expressed in transfected cells
Source text: Human pan T-cells were nucleofected using an Amaxa 4D nucleofector with one of four piggyBac transposons. Modified T cells receiving the “mock” condition were nucleofected with an empty piggyBac transposon. Modified T cells received either a piggyBac transposon containing a therapeutic agent alone (a sequence encoding a CARTyrin) or a piggyBac transposon containing an integrated iC9 sequence and a therapeutic agent (a sequence encoding a CARTyrin).
To test the iC9 safety switch, each of the four modified T cells were incubated for 24 hours with 0, 0.1 nM, 1 nM, 10 nM, 100 nM or 1000 nM AP1903 (an induction agent for […]). Viability was assessed by flow cytometry using 7-aminoactinomycin D (7-AAD), a fluorescent intercalator, as a marker for cells undergoing apoptosis.
Cell viability was assessed at day 12 (see FIG. 9). […] Moreover, cell viability was assessed at day 19 (see FIG. 10). […]
A quantification of the aggregated results was performed and is provided in FIG. 11, showing the significant impact of the iC9 safety switch on the percent cell viability as a function of the concentration of the induction agent (AP1903) of the iC9 switch for each modified cell type at either day 12 (FIG. 9 and left graph) or day 19 (FIG. 10 and right graph).

[3] = system: cells; details: cited from earlier work
[4] = cited from earlier work
[5] = system: Pan T cells; assay: Expansion of BCMA CAR-T cells with CSR over 19 day culture; assay type: cell-based, human; details: CSR transient (mRNA) or stable (piggyBac)
Source text: FIG. 36 is a graph showing that delivery of CSR enhances the expansion of CAR-T cells. CSRs were delivered to CAR-T cells either transiently by mRNA or stably by piggyBac™. Pan T cells isolated from the blood of a normal donor were genetically modified using the piggyBac™ DNA modification system and the standard Poseida process. Cells were co-electroporated in a single reaction with mRNA encoding the Super piggyBac transposase enzyme (SPB), a transposon encoding a BCMA CAR and selection gene, along with an additional mRNA encoding a CSR (either CD28z or CD2z; resulting in transient expression) or a CD19 mRNA control, or, with a transposon encoding a BCMA CAR, selection gene and a CSR (either CD28z or CD2z; resulting in stable expression). The cells were subsequently stimulated with agonist mAbs anti-CD2, anti-CD3 and anti-CD28, and were later selected for genetic modification over the course of a 19 day culture period. At the end of the initial culture period all T cells expressed the CAR, indicating successful selection for genetically-modified cells (data not shown). Bars represent total live CAR-T cells in well and numbers indicate fold-enhancement of expansion above CAR-T cells produced in the absence of a CSR or a CD19 mRNA control.

T1 sequence (P62942 with tags, fused parts or gaps F37V): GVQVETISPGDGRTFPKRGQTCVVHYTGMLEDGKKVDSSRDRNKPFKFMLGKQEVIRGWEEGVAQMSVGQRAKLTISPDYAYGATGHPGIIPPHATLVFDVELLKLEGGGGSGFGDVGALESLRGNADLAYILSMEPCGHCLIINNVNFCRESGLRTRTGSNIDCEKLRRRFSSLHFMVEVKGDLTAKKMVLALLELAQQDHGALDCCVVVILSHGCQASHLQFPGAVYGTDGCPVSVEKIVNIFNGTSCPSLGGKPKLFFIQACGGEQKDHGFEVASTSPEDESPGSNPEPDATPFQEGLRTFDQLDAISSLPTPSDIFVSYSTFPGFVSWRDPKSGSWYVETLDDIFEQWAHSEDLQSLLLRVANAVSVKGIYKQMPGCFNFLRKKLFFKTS

## CC[C@H](C(=O)N1CCCC[C@H]1C(=O)O[C@H](CCc1ccc(OC)c(OC)c1)c1cccc(OCC(=O)NCCNC(=O)COc2cccc([C@@H](CCc3ccc(OC)c(OC)c3)OC(=O)[C@@H]3CCCCN3C(=O)[C@@H](CC)c3cc(OC)c(OC)c(OC)c3)c2)c1)c1cc(OC)c(OC)c(OC)c1 (relative stereo) [AP1903, 2-Piperidinecarboxylic acid, 1-[(2S)-1-oxo-2-(3,4,5-trimethoxyphenyl)butyl]-, 1,2-ethanediylbis[imino(2-oxo-2,1-ethanediyl)oxy-3,1-phenylene[(1R)-3-(3,4-dimethoxyphenyl)propylidene]]ester, [2S-[1(R*),2R*[S*[S*[1(R*),2R*]]]]]-(9C1)]
[1]
  amount needed in vitro for effective signaling of cells, converted: 16 to 160 µg/L
[2]; T cells containing iC9 construct, 24 hours incubation
  concentration at which AP1903 induces apoptosis (lowest concentration of the study): ≤ 0.1 nM
[3]
  amount needed in vitro for effective signaling of cells: 10 to 100 nM
[4]; 0.01, 0.05, 0.1, 0.5 and 1.0 mg/kg IV over 2 hours
  safety and tolerability: safe and well tolerated at all dose levels
[4]; 0.01-1.0 mg/kg infused IV over 2 hours, healthy volunteers
  mean Cmax: 10 to 1275 ng/mL
[4]; 0.01-1.0 mg/kg
  plasma levels versus dose: directly proportional to dose
[4]; Phase I study
  well-tolerated dose: up to 1 mg/kg
[4]; after initial infusion period
  plasma level as % of maximal concentration, 0.5 hours post-dose: approximately 18%
  plasma level as % of maximal concentration, 2 hours post-dose: ~7%
  plasma level as % of maximal concentration, 10 hours post-dose: ~1%
[4]; human, in vivo
  pharmacokinetic profile: favorable pharmacokinetic profile

## CD28z CSR: chimeric stimulatory receptor: wild type CD28 and CD3z intracellular stimulation domain, SEQ ID NO: 17910
[5]
  expansion of CAR-T cells: a greater degree of expansion of the CAR-T cells

## iC9 safety switch: ligand binding region (FKBP12 F36V), a linker, and a truncated caspase 9 polypeptide (SEQ ID NO: 18032)
[2]; with induction agent AP1903, by day 12 post-nucleofection
  apoptosis induced by presence of the iC9 safety switch: induces apoptosis in a significant majority of cells

B1: CD2z CSR: chimeric stimulatory receptor: wild type CD2 and CD3z intracellular stimulation domain, SEQ ID NO: 17912 (protein)
chain: MSFPCKFVASFLLIFNVSSKGAVSKEITNALETWGALGQDINLDIPSFQMSDDIDDIKWEKTSDKKKIAQFRKEKETFKEKDTYKLFKNGTLKIKHLKTDDQDIYKVSIYDTKGKNVLEKIFDLKIQERVSKPKISWTCINTTLTCEVMNGTDPELNLYQDGKHLKLSQRVITHKWTTSLSAKFKCTAGNKVSKESSVEPVSCPEKGLDIYLIIGICGGGSLLMVFVALLVFYITKRKKQRSRRNDEELETRAHRVATEERGRKPHQIPASTPQNPATSQHPPPPPGHRSQAPSHRPPPPGHRVQHQPQKRPPAPSGTQVHQQKGPPLPRPRVQPKPPHGAAENSLSPSSNRVKFSRSADAPAYKQGQNQLYNELNLGRREEYDVLDKRRGRDPEMGGKPRRKNPQEGLYNELQKDKMAEAYSEIGMKGERRRGKGHDGLYQGLSTATKDTYDALHMQALPPR
[5]
  expansion of CAR-T cells: a greater degree of expansion of the CAR-T cells
